# Test results: PMC12120625, “Cytotoxicity and Nanoassembly Characteristics of Aromatic Amides of Oleanolic Acid and Ursolic Acid” (ACS Omega, 2025)
# Legend:
# CCRF-CEM = test: Cytotoxicity assay, resazurin, 72 h, CCRF-CEM; type: cell-based; conditions: Homo sapiens, T-lymphoblastic leukemia
# Procedure: (§1) The cytotoxicity screening tests were made with T-lymphoblastic leukemia (CCRF-CEM), breast adenocarcinoma (MCF7), cervical carcinoma (HeLa), and malignant melanoma (G-361) cancer cell lines (the European Collection of Authenticated Cell Cultures, Salisbury, U.K.). Human foreskin fibroblasts (BJ) were used as reference cells, and they were obtained from the American Type Culture Collection (ATCC, Manassas, Virginia). The cells were cultured in DMEM (Dulbecco’s modified Eagle’s medium) or RPMI 1640 (CCRF-CEM). Media used were supplemented with 10% fetal serum, L-glutamine (2 mM), and 1% penicillin–streptomycin mixture (all from Sigma-Aldrich). The cell lines were maintained under standard cell culture conditions at 37 °C and 5% CO2 in a humid environment. Cells were subcultured two or three times a week using the standard trypsinization procedure.
# (§2) The cytotoxicity assays were performed according to the standard experimental procedure published earlier. The cell viability was measured after 72 h using resazurin (Sigma-Aldrich). Western blotting and caspase activity assay were performed as described earlier. ,
# MCF7 = test: Cytotoxicity assay, resazurin, 72 h, MCF7; type: cell-based; conditions: Homo sapiens, breast adenocarcinoma
# Procedure: as §1, §2
# HeLa = test: Cytotoxicity assay, resazurin, 72 h, HeLa; type: cell-based; conditions: Homo sapiens, cervical cancer
# Procedure: as §1, §2
# G-361 = test: Cytotoxicity assay, resazurin, 72 h, G-361; type: cell-based; conditions: Homo sapiens, malignant melanoma
# Procedure: as §1, §2
# [1] = Cytotoxicity assay, resazurin, 72 h, normal fibroblasts BJ; type: cell-based; conditions: human, BJ normal foreskin fibroblasts, normal foreskin fibroblast
# Procedure: as §1, §2
# [2] = Nanoassembly by UV spectroscopy and TEM in methanol and water; type: physicochemical; conditions: UV spectra and TEM
# Procedure: UV spectra were measured on a Specord 210 spectrometer (Jena Analytical, Germany) in the wavelength range of 200–400 nm. The stock solutions of the studied compounds (9b, 13b, 16b, or 17b; 0.003 mmol) were prepared in methanol (2 mL) at a concentration of 1 mg·mL^–1. A series of water/methanol mixtures were then prepared starting from a water/methanol ratio of 0/100 up to 100/0 in 20% steps. The stock solutions of the studied compounds (0.15 mL) were added separately to each vial containing water/methanol mixtures (3 mL), and the UV spectra were recorded in the wavelength range of 200–400 nm. Aliquots of the stock solutions of the studied compounds (160 μL) were used to prepare samples in the given ratios of water/methanol (0:100 to 100:0 in the 20% steps) mixtures. The UV spectra were recorded in the time 0, 1, 2, 3, and 4 h, followed by a subsequent recording after each 24 h during 7 days (Supporting Information, Figure S33). Note: All target compounds were subjected to this type of investigation; however, self-assembly characteristics were detected by measuring the UV spectra only with 9b, 13b, 16b, and 17b.
# Transmission electron microscopy (TEM) was performed with a Tecai G2 Spirit Twin 12 microscope (FEI, Brno, Czech Republic). The samples for TEM were prepared by the fast-drying method, both in methanol and in water. , The studied compounds (2 μL of each one) were dissolved in methanol, and if studies should have been made in water, the compounds were first dissolved in methanol, and then water was added to make the final methanol/water (1:10) solutions. The solutions of compounds in either solvent were made to get the final concentrations of c = 10 mg·mL^–1. Then the solutions were dropped onto a standard carbon-coated copper TEM grid (300 mesh). After 2 min, the rest of the solution was removed by touching the bottom of the grid with a thin strip of filter paper. This fast removal of the solvent, also referred to as “fast-drying” above, is necessary to minimize drying artifacts, as documented in previous studies. , The fast-dried specimens were left to dry completely at an ambient temperature. […] The morphology of selected samples was verified by additional TEM experiments, which employed the samples that were negatively stained with uranyl acetate (UO2Ac2). The negative staining was performed as follows: A small volume (2 μL) of UO2Ac2 (2 wt % of aqueous solution) was dropped on the selected dried specimens from the previous step (i.e., on the dried specimens on the carbon-coated TEM grids). After 1 min, the excess of UO2Ac2 solution was removed (by touching the bottom of the grid with filter paper, like in the previous step). […]
# [3] = Solubility in methanol and water; type: physicochemical
SMILES,IC50 (CCRF-CEM) [µM],IC50 (MCF7) [µM],IC50 (HeLa) [µM],IC50 (G-361) [µM],IC50 at 72 h [1] [µM],nanoassembly [2],solubility [3]
"CC1(C)CC[C@]2(C(=O)O)CC[C@]3(C)C(=CC[C@@H]4[C@@]5(C)CC[C@H](O)C(C)(C)[C@@H]5CC[C@]43C)[C@@H]2C1 [Compound 1a, (3β)-3-hydroxyolean-12-en-28-oic-acid, reference compound]",> 50,> 50,> 50,> 50,> 50,–,–
"C[C@H]1[C@H](C)CC[C@]2(C(=O)O)CC[C@]3(C)C(=CC[C@@H]4[C@@]5(C)CC[C@H](O)C(C)(C)[C@@H]5CC[C@]43C)[C@H]12 [Compound 1b, (3β)-3-hydroxy-urs-12-en-28-oic-acid, reference compound]",13.2 ± 2.7,16.2 ± 0.5,12.6 ± 2.7,9.7 ± 0.3,15.6 ± 0.6,–,–
CC(=O)O[C@H]1CC[C@]2(C)[C@H]3CC=C4[C@@H]5CC(C)(C)CC[C@]5(C(=O)NCC(=O)O)CC[C@@]4(C)[C@]3(C)CC[C@H]2C1(C)C [Compound 3a],41 ± 5.9,46.9 ± 4.4,35.8 ± 3.4,43.1 ± 1.1,> 50,–,–
CC(=O)O[C@H]1CC[C@]2(C)[C@H]3CC=C4[C@@H]5[C@@H](C)[C@H](C)CC[C@]5(C(=O)NCC(=O)O)CC[C@@]4(C)[C@]3(C)CC[C@H]2C1(C)C [Compound 3b],43.3 ± 5.4,49.7 ± 0.5,–,38.7 ± 4.9,> 50,–,–
CC(=O)O[C@H]1CC[C@]2(C)[C@H]3CC=C4[C@@H]5CC(C)(C)CC[C@]5(C(=O)NCC(=O)Nc5cc6cccnc6c6ncccc56)CC[C@@]4(C)[C@]3(C)CC[C@H]2C1(C)C [Compound 4a],0.6 ± 0.1,0.7 ± 0.1,0.3,0.4,0.8 ± 0.1,–,–
CC(=O)O[C@H]1CC[C@]2(C)[C@H]3CC=C4[C@@H]5[C@@H](C)[C@H](C)CC[C@]5(C(=O)NCC(=O)Nc5cc6cccnc6c6ncccc56)CC[C@@]4(C)[C@]3(C)CC[C@H]2C1(C)C [Compound 4b],0.6 ± 0.2,0.9 ± 0.3,0.4 ± 0.1,0.5 ± 0.1,1.5 ± 0.5,–,–
CC1(C)CC[C@]2(C(=O)NCC(=O)Nc3cc4cccnc4c4ncccc34)CC[C@]3(C)C(=CC[C@@H]4[C@@]5(C)CC[C@H](O)C(C)(C)[C@@H]5CC[C@]43C)[C@@H]2C1 [Compound 5a],0.3 ± 0.1,0.4 ± 0.1,0.6 ± 0.2,0.5 ± 0.1,1.5 ± 0.1,–,–
C[C@H]1[C@H](C)CC[C@]2(C(=O)NCC(=O)Nc3cc4cccnc4c4ncccc34)CC[C@]3(C)C(=CC[C@@H]4[C@@]5(C)CC[C@H](O)C(C)(C)[C@@H]5CC[C@]43C)[C@H]12 [Compound 5b],0.6 ± 0.1,0.5,0.6 ± 0.1,0.5 ± 0.1,1.6 ± 0.1,–,–
CC(=O)O[C@H]1CC[C@]2(C)[C@H]3CC=C4[C@@H]5CC(C)(C)CC[C@]5(C(=O)NCC(=O)Nc5ccc(N)cc5)CC[C@@]4(C)[C@]3(C)CC[C@H]2C1(C)C [Compound 7a],17.1 ± 1.9,12 ± 2.5,10.9 ± 1.9,8.5 ± 0.1,18.5 ± 2.6,–,–
CC(=O)O[C@H]1CC[C@]2(C)[C@H]3CC=C4[C@@H]5[C@@H](C)[C@H](C)CC[C@]5(C(=O)NCC(=O)Nc5ccc(N)cc5)CC[C@@]4(C)[C@]3(C)CC[C@H]2C1(C)C [Compound 7b],18.1 ± 0.4,14.9 ± 2.2,12.5 ± 2.3,11.2 ± 0.4,36.1 ± 4.5,–,–
CC1(C)CC[C@]2(C(=O)NCC(=O)Nc3ccc(N)cc3)CC[C@]3(C)C(=CC[C@@H]4[C@@]5(C)CC[C@H](O)C(C)(C)[C@@H]5CC[C@]43C)[C@@H]2C1 [Compound 9a],31.7 ± 2.3,17 ± 2.1,28.7 ± 1.8,18.6 ± 2.3,37.9 ± 6.1,showed no nanoassembly,–
C[C@H]1[C@H](C)CC[C@]2(C(=O)NCC(=O)Nc3ccc(N)cc3)CC[C@]3(C)C(=CC[C@@H]4[C@@]5(C)CC[C@H](O)C(C)(C)[C@@H]5CC[C@]43C)[C@H]12 [Compound 9b],25.8 ± 0.4,16.4 ± 3.7,30 ± 2.8,23.3 ± 1,35.2 ± 1.3,displayed nanoassembly in methanol and water,soluble both in methanol and in water
CC(=O)O[C@H]1CC[C@]2(C)[C@H]3CC=C4[C@@H]5CC(C)(C)CC[C@]5(C(=O)NCC(=O)Nc5cccc(N)c5)CC[C@@]4(C)[C@]3(C)CC[C@H]2C1(C)C [Compound 11a],> 50,39.5 ± 1.5,41.9 ± 4.7,38.6 ± 1.3,> 50,–,–
CC(=O)O[C@H]1CC[C@]2(C)[C@H]3CC=C4[C@@H]5[C@@H](C)[C@H](C)CC[C@]5(C(=O)NCC(=O)Nc5cccc(N)c5)CC[C@@]4(C)[C@]3(C)CC[C@H]2C1(C)C [Compound 11b],32.6 ± 8.7,15.8 ± 3.2,14.6 ± 2.7,15 ± 0.8,44.8 ± 0.6,–,–
CC1(C)CC[C@]2(C(=O)NCC(=O)Nc3cccc(N)c3)CC[C@]3(C)C(=CC[C@@H]4[C@@]5(C)CC[C@H](O)C(C)(C)[C@@H]5CC[C@]43C)[C@@H]2C1 [Compound 13a],29.4 ± 4.4,14.2 ± 1.3,19.9 ± 1,19.5 ± 2.1,45.7 ± 2.2,showed no nanoassembly,–
C[C@H]1[C@H](C)CC[C@]2(C(=O)NCC(=O)Nc3cccc(N)c3)CC[C@]3(C)C(=CC[C@@H]4[C@@]5(C)CC[C@H](O)C(C)(C)[C@@H]5CC[C@]43C)[C@H]12 [Compound 13b],22.3 ± 2.3,12.8 ± 2.5,26.7 ± 2.7,14.4 ± 2.9,38.5 ± 0.8,displayed nanoassembly in methanol and water,soluble both in methanol and in water
